Results reported in patent USRE48461E1, “Modulation of androgen receptor expression” (Ionis Pharmaceuticals, Inc., priority 2012, dated 2021).
Oligonucleotides are written 5' to 3', each unit as a sugar letter and its base; * is a phosphorothioate linkage, no mark a phosphodiester; rarer units and linkages stand in square brackets, end groups in braces. Plain capitals give the bases only. k = constrained ethyl (cEt); [5mC] = 5-methylcytosine; d = 2'-deoxy (DNA)

Columns and labels:
Format in all cases: cell-based, human
KLK3 mRNA = KLK3 mRNA (AR target gene) in C4-2B MR cells
PSA mRNA = test: PSA expression in C4-2B cells (Example 30); settings: 48 hrs
Experimental: Cells were plated at 1,000 cells per well. […] ISIS 549148 was included as a negative control. […] After an incubation period of 48 hrs, RNA levels of AR, PSA and TMPRSS2 were measured.
Cells were plated at 2,000 cells per well and cultured in CSS media with 1 nM DHT. […] ISIS 549148 was included as a negative control. […] After an incubation period of 48 hrs, RNA levels of AR, PSA and TMPRSS2 were measured. In the absence of DHT, AR expression in C4-2 cells was 188%, PSA expression was 43% and TMPRSS2 expression was 27% compared to the untreated control.

VCaP cells = test: VCaP cell proliferation; settings: 5 days; for Proliferation (% untreated control): VCaP cells
Experimental: (§1) After a treatment period of 5 days in complete medium or CSS+1 nM DHT medium, the proliferative capacity of the cancer cells was measured with using CellTiter 96® AQueous One or CellTiter-Glo® Solution Cell Proliferation kit (Promega), following the manufacturer's instructions. […] Treatment with ISIS oligonucleotides in CSS+DHT medium reduced the proliferative capacity to a greater extent than treatment with MVD-3100. The proliferative capacity of cells cultured in CSS medium without DHT is 12% of untreated control levels.

LNCaP cells = test: LNCaP cell proliferation (complete or CSS+DHT medium); settings: 5 days; for Proliferation (% untreated control) in LNCaP cells cultured in CSS + DHT medium: CSS + 1 nM DHT medium
Experimental: as §1, with “One Solution” for “One”, “solution” for “Solution”, “17%” for “12%”

[1] = tested on: prostate-specific antigen (PSA) mRNA; test: Time-course PSA expression in C4-2B cells
Experimental: C4-2B cells were plated at 1,000 cells per well in complete medium. […] ISIS 549148 was included as a negative control. […] After a treatment period of 8 hours, 24 hours, and 48 hours, AR expression was measured with primer probe set hAR-LTS00943. Results are presented in Tables 70-72 as percent expression of AR, relative to non-treated cells.
Expression analysis of prostate-specific antigen (PSA) and TMPRSS2 were also analyzed. Results are presented in Tables 73-75 as percent inhibition of PSA expression and Tables 76-78 as percent inhibition of TMPRSS2 expression, relative to non-treated cells.

[2] = complete medium or CSS+1 nM DHT

GTTGATTTAATGGTTG (all phosphorothioate, sugars by position not given here; further chemistry not fully specified) [ISIS 549458]
AR target gene KLK3 mRNA levels (KLK3 mRNA; C4-2B MR cells, 0.04-5.00 μM): reduced target gene levels in a dose dependent manner more extensively than treatment with ISIS 554221

CNC(=O)c1ccc(N2C(=S)N(c3ccc(C#N)c(C(F)(F)F)c3)C(=O)C2(C)C)cc1F [MDV3100, 4-(3-(4-cyano-3-(trifluoromethyl)phenyl)-5,5-dimethyl-4-oxo-2-thioxoimidazolidin-1-yl)-2-fluoro-N-methylbenzamide, reference compound]
Percent inhibition of PSA expression (PSA mRNA; CSS + DHT medium, 0.04 μM): 0% | Percent inhibition of PSA expression (PSA mRNA; CSS + DHT medium, 0.2 μM): 0% | Percent inhibition of PSA expression (PSA mRNA; CSS + DHT medium, 1 μM): 37% | Percent inhibition of PSA expression (PSA mRNA; CSS + DHT medium, 5.0 μM): 45% | Percent inhibition of PSA expression (PSA mRNA; complete medium, 0.04 μM): 8% | Percent inhibition of PSA expression (PSA mRNA; complete medium, 0.2 μM): 27% | Percent inhibition of PSA expression (PSA mRNA; complete medium, 1 μM): 73% | Percent inhibition of PSA expression (PSA mRNA; complete medium, 5.0 μM): 88% | Proliferation (% untreated control) (VCaP cells; CSS + DHT medium, 0.04 μM): 117 % untreated control | Proliferation (% untreated control) (VCaP cells; CSS + DHT medium, 0.2 μM): 119 % untreated control | Proliferation (% untreated control) (VCaP cells; CSS + DHT medium, 1.0 μM): 71 % untreated control | Proliferation (% untreated control) (VCaP cells; CSS + DHT medium, 5.0 μM): 65 % untreated control | Proliferation (% untreated control) (VCaP cells; Complete medium, 0.04 μM): 49 % untreated control | Proliferation (% untreated control) (VCaP cells; Complete medium, 0.2 μM): 44 % untreated control | Proliferation (% untreated control) (VCaP cells; Complete medium, 1.0 μM): 27 % untreated control | Proliferation (% untreated control) (VCaP cells; Complete medium, 5.0 μM): 17 % untreated control | proliferation of VCaP cells (VCaP cells; [2]): reduced proliferation of the cells in a dose dependent compared to the control | Proliferation (% untreated control) in LNCaP cells cultured in CSS + DHT medium (LNCaP cells; 0.04 μM): 112 % untreated control | Proliferation (% untreated control) in LNCaP cells cultured in CSS + DHT medium (LNCaP cells; 0.2 μM): 95 % untreated control | Proliferation (% untreated control) in LNCaP cells cultured in CSS + DHT medium (LNCaP cells; 1 μM): 74 % untreated control | Proliferation (% untreated control) in LNCaP cells cultured in CSS + DHT medium (LNCaP cells; 5.0 μM): 33 % untreated control | proliferation of LNCaP cells (LNCaP cells; [2]): reduced proliferation of the cells in a dose dependent compared to the control | Proliferation (% untreated control) in LNCaP cells cultured in complete medium (LNCaP cells; 0.04 μM): 107 % untreated control | Proliferation (% untreated control) in LNCaP cells cultured in complete medium (LNCaP cells; 0.2 μM): 88 % untreated control | Proliferation (% untreated control) in LNCaP cells cultured in complete medium (LNCaP cells; 1 μM): 65 % untreated control | Proliferation (% untreated control) in LNCaP cells cultured in complete medium (LNCaP cells; 5.0 μM): 45 % untreated control | Percent inhibition of PSA expression compared to the control group in 8 hours ([1]; 0.04 μM): 0% | Percent inhibition of PSA expression compared to the control group in 24 hours ([1]; 0.04 μM): 24% | Percent inhibition of PSA expression compared to the control group in 48 hours ([1]; 0.04 μM): 5% | Percent inhibition of PSA expression compared to the control group in 8 hours ([1]; 0.2 μM): 3% | Percent inhibition of PSA expression compared to the control group in 24 hours ([1]; 0.2 μM): 24% | Percent inhibition of PSA expression compared to the control group in 48 hours ([1]; 0.2 μM): 5% | Percent inhibition of PSA expression compared to the control group in 8 hours ([1]; 1 μM): 23% | Percent inhibition of PSA expression compared to the control group in 24 hours ([1]; 1 μM): 53% | Percent inhibition of PSA expression compared to the control group in 48 hours ([1]; 1 μM): 32% | Percent inhibition of PSA expression compared to the control group in 8 hours ([1]; 5.0 μM): 33% | Percent inhibition of PSA expression compared to the control group in 24 hours ([1]; 5.0 μM): 65% | Percent inhibition of PSA expression compared to the control group in 48 hours ([1]; 5.0 μM): 63% | PSA expression ([1]; time course): also reduced downstream gene expressions but not as potently as that with the ISIS oligonucleotides

549372 (kA*kA*kG*dT*dT*dG*dT*dA*dG*dT*dA*dG*dT*k[5mC]*kG*k[5mC]) [compound 549372]
Percent inhibition of KLK3 mRNA in C4-2B MR cells (KLK3 mRNA; 0.04 μM): 17% | Percent inhibition of KLK3 mRNA in C4-2B MR cells (KLK3 mRNA; 0.20 μM): 35% | Percent inhibition of KLK3 mRNA in C4-2B MR cells (KLK3 mRNA; 1.00 μM): 68% | Percent inhibition of KLK3 mRNA in C4-2B MR cells (KLK3 mRNA; 5.00 μM): 80%

549458 (kG*kT*kT*dG*dA*dT*dT*dT*dA*dA*dT*dG*dG*kT*kT*kG) [compound 549458]
Percent inhibition of KLK3 mRNA in C4-2B MR cells (KLK3 mRNA; 0.04 μM): 0% | Percent inhibition of KLK3 mRNA in C4-2B MR cells (KLK3 mRNA; 0.20 μM): 42% | Percent inhibition of KLK3 mRNA in C4-2B MR cells (KLK3 mRNA; 1.00 μM): 81% | Percent inhibition of KLK3 mRNA in C4-2B MR cells (KLK3 mRNA; 5.00 μM): 92%
